Measurements published in patent US20230302018A1 (priority 2022, published 2023).

Test system: Male Wistar rats exposed to nitrogen mustard (NM)
Settings: rat, in vivo

SMILES: CC[C@H]1[C@@H](O)[C@@H]2[C@H](CC[C@]3(C)[C@@H]([C@H](C)CCC(=O)O)CC[C@@H]23)[C@@]2(C)CC[C@@H](O)C[C@@H]12 [OCA, 6α-ethyl-chenodeoxycholic acid]
- reduction in total collagen (hydroxyproline in tissue) compared to NM alone: 2 fold
